Here are results for nine molecules from paper PMC11988671, “SIRT7 Is a Lysine Deacylase with a Preference for Depropionylation and Demyristoylation” (International Journal of Molecular Sciences, 2025).

In test [1] the test system is SIRT1-dependent PPARα deacetylation in HEK293T cells. Briefly: SIRT1-dependent PPARα deacetylation (IP and Western blot). The settings on record: FK866 500 pM. The format is cell-based. The procedure: (§1) HEK293T cells were treated with FK866 or DMSO for 24 h and transfected with the indicated plasmids using JetPRIME reagents (Polypus, Illkirch-Graffenstaden, France) for an additional 24 h. The cells were lysed in IP buffer (20 mM Tris-HCl pH 7.4, 200 mM NaCl, 2.5 mM MgCl2, 0.05% NP-40, 1 mM PMSF, and protease inhibitor cocktail (Nacalai Tesque)) supplemented with 5 mM NAM and 2.5 µM trichostatin A. The lysate was incubated on ice for 20 min and subsequently sonicated twice at 4 °C with a 20 s interval at 26% amplitude using a Sonifier SFX-150 (Branson Ultrasonics) to disrupt the cells. Following sonication, the lysate was centrifuged at 14,000× g for 15 min at 4 °C to separate cellular debris. For immunoprecipitation, 2 mg protein from each sample was incubated with anti-HA- or anti-DYKDDDDK (FLAG)-tagged beads (Fujifilm Wako Pure Chemical Corp.) for 18 h at 4 °C with gentle rotation. After washing with IP buffer, the proteins were eluted in SDS sample buffer, and lysine acetylation was detected by Western blot with an anti-acetylated lysine antibody.
(§2) For Western blot, proteins were separated by SDS-PAGE and transferred to an Immobilon-P PVDF membrane (Merck Millipore, Burlington, MA, USA), which was probed with primary and secondary antibodies. […]

A further test relates to HEK293T cells. Briefly: NAD^+ assay in cells treated with FK866. It counts as cell-based. The procedure:
HEK293T and Hepa1–6 cells were treated with the NAMPT inhibitor FK866 (500 pM and 8 nM, respectively), and NAD^+ and total NAD^+/NADH cellular levels were determined using an NAD^+/NADH Assay Kit-WST (#N509; Dojindo Laboratories, Kumamoto, Japan). Total NAD^+/NADH and NADH concentrations in one sample were calculated from the calibration curve, then the NAD^+ level was determined by subtracting the NADH value from the total NAD^+/NADH level.

Test [2] deals with Cd36 and Cidec expression in Hepa1–6 cells. In words: Cellular gene expression (real-time quantitative PCR). It counts as cell-based. The settings on record: FK866 8 nM, 48 h. The procedure: Hepa1–6 cells were exposed to 8 nM FK866 for 48 h, and the cells were incubated without fetal bovine serum for the final 24 h of treatment. Subsequently, total RNA was extracted from the cells utilizing the Sepasol RNA I Super Reagent (Nacalai Tesque). Quantitative reverse transcription (RT)-PCR was conducted using a PrimeScript RT Reagent Kit (RR047A; TaKaRa Bio, Inc., Kusatsu, Japan) followed by TB Green Premix Ex TaqII (RR820A; TaKaRa Bio, Inc.) and an ABI ViiA 7 Real-Time PCR System (Applied Biosystems, Inc., Foster City, CA, USA). The relative expression level of each gene was normalized to that of TATA box-binding protein (Tbp). The following primer sequences were used: Cd36, forward 5′-TTGGCCAAGCTATTGCGACA-3′ and reverse 5′-CTGGAGGGGTGATGCAAAGG-3′; Cidec, forward 5′-GCTGAAGGGGCAGAAGTGGA-3′ and reverse 5′-GCGCTTGGCCTTGTAGCAGT-3′; and Tbp, forward 5′-CCCCTTGTACCCTTCACCAAT-3′ and reverse 5′-GAAGCTGCGGTACAATTCCAG-3′.

In test [3] the test system is SIRT7-dependent DDB1 deacetylation in HEK293T cells. In words: SIRT7-dependent DDB1 deacetylation (IP and Western blot). It counts as cell-based. Particulars: FK866 500 pM. The procedure: as §1, §2
Another test has as its system SIRT4. Details: method as in PMID 23746352. The settings on record: read-out: Km of SIRT4 for NAD^+; cited from earlier work.
The subject of another test is SIRT5. Details: method as in PMID 23028781. Particulars: read-out: Km of SIRT5 for NAD^+; cited from earlier work.
Test [4] deals with SIRT1. Particulars: compared with own H3K9Ac value; read-out: Km, NAD^+ for SIRT1, value reported previously; cited from earlier work.
In a further test the test system is SIRT7-DNA and SIRT7-RNA. Details: method as in PMID 35939806. The settings on record: compared with own H3K18Ac value in presence of RNA; read-out: Km, NAD^+ for SIRT7, previously reported value; cited from earlier work.
Test [5] addresses T1, SIRT7 (Mus musculus, UniProt Q8BKJ9).
T1 sequence (Q8BKJ9 1-402): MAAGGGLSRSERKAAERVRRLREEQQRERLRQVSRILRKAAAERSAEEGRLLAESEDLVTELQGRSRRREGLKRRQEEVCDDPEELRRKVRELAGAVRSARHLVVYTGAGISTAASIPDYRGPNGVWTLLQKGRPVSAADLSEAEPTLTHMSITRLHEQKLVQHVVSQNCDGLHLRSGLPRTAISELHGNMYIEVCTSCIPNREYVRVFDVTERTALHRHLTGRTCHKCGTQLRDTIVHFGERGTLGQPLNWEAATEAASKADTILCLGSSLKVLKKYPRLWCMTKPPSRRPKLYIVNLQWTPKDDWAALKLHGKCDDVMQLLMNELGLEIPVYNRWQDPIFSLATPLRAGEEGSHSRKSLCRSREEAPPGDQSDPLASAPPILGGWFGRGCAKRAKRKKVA
In words: NAM inhibition assay (in vitro deacylation, LC-MS/MS). Particulars: for IC50: IC50, NAM (relative IC50), wild-type SIRT7.

For test [6], the target named is T2, SIRT1 (Mus musculus, UniProt Q923E4).
T2 construct: HaloTag (N, cleaved yes); made in house; host or cells: E. coli K12 KRX
T2 sequence (Q923E4 1-737): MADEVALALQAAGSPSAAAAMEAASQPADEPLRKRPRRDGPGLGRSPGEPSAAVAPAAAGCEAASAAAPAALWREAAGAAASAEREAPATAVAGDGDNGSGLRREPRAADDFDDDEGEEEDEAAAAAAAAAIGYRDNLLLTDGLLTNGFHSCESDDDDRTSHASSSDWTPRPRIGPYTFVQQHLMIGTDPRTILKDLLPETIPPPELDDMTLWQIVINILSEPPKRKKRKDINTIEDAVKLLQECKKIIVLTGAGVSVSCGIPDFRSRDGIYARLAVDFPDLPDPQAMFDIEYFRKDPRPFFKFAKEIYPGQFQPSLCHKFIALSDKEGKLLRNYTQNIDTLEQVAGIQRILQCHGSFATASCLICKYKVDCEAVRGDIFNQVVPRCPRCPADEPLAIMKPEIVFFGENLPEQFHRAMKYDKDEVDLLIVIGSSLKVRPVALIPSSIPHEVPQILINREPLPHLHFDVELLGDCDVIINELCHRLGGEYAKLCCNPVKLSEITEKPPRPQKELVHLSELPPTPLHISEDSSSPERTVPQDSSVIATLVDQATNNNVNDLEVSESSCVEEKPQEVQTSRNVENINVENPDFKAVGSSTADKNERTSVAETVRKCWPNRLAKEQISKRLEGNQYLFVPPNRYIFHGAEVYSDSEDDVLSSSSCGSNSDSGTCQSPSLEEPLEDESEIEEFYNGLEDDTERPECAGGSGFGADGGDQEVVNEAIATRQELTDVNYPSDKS
Briefly: In vitro deacetylation assay of H3K9Ac peptide by SIRT1 (LC-MS/MS). The format is biochemical. The settings on record: 8 µM peptide, 1.0 mM NAD^+, 2 h, 37 °C. The procedure: (§3) In the case of the SIRT1 enzymatic reaction, 8 µM peptide was incubated in 50 µL reaction buffer containing 10 mM NaCl, 10 mM KCl, 20 mM Tris-HCl pH 8.0, 1.0 mM NAD^+, and 1 mM DTT, with or without 1 µg recombinant SIRT1. The reaction mixtures were incubated for 24 h for SIRT7 or 2 h for SIRT1 at 37 °C.
(§4) The general conditions for electrospray ionization-MS were as follows: nebulizer gas, N2, delivered at 50 psi; nebulizer gas temperature, 250 °C; capillary voltage, 3500 V; and collision gas, G1 grade N2 (Taiyo Nippon Sanso Corporation, Tokyo, Japan).

The target of test [7] is T1, SIRT7. In words: In vitro deacylation assay of acyl-modified H3K18 peptides by SIRT7 (LC-MS/MS). It counts as biochemical. Set-up: HaloTag (N, cleaved yes); made in house; host or cells: E. coli K12 KRX. The settings on record: 8 μM peptide (glutaryl 100 µM), 1.0 mM NAD^+, RNA, 24 h, 37 °C. The procedure:
as §3, §4

Setting [8] is: succinyl H3K18 peptide substrate.

Values joined by “and” are separate entries in the source; they are usually repeats but may differ in a detail not shown here. Equal entries are not always repeated.

For the molecule `O=C(/C=C/c1cccnc1)NCCCCC1CCN(C(=O)c2ccccc2)CC1` [FK866], the “Deacetylation of PPARα by SIRT1” value in test [1] is listed as “not abolished”. For the same molecule, in the test with HEK293T cells, the “Cellular NAD^+ levels” value is reported as “decreased”. Also, in test [2], the Cd36 expression result was “significantly decreased” and the Cidec expression result is “significantly decreased”. For the same molecule, the “SIRT7-mediated DDB1 deacetylation” value in test [3] is reported as “abolished”.

For the molecule `NC(=O)c1ccc[n+]([C@@H]2O[C@H](COP(=O)([O-])OP(=O)(O)OC[C@H]3O[C@@H](n4cnc5c(N)ncnc54)[C@H](O)[C@@H]3O)[C@@H](O)[C@H]2O)c1` [NAD^+, Nicotinamide adenine dinucleotide], the Michaelis-Menten constant (Km) in the test with SIRT4 is 35 µM; in the test on SIRT5 it was 980 µM; in the test with SIRT1 [4], 29 µM; in the test with SIRT7-DNA and SIRT7-RNA, 480 µM.

With `NC(=O)c1cccnc1` [NAM, Nicotinamide], the IC50 on SIRT7 [5] (acetyl H3K18 peptide substrate) is 23 µM and 23.2 µM; at SIRT7 [5] (butyryl H3K18 peptide substrate), 613 ± 63.8 µM; on SIRT7 [5] (myristoyl H3K18 peptide substrate), 286 ± 25.1 µM; on SIRT7 [5] (octanoyl H3K18 peptide substrate), 1110 ± 216 µM; against SIRT7 [5] (palmitoyl H3K18 peptide substrate), 544 ± 83.7 µM; against SIRT7 [5] (propionyl H3K18 peptide substrate) it was 787 ± 118 µM. This molecule showed a half-maximal inhibitory concentration (IC50) against SIRT7 [5] (setting [8]) of 1230 ± 268 µM. The “NAM inhibition of the desuccinylation reaction” value on SIRT7 [5] (setting [8]) is “did not completely inhibit”.

For the molecule “NH2-ARTKQTARK^AcetylSTGGKAPRKQLC-COOH [H3K9Ac]”, at SIRT1 [6], the “Loss of H3K9Ac peptide and formation of deacetylated H3K9 peptide with recombinant SIRT1” value is recorded as “detected”.

With “NH2-KSTGGKAPRK^ButyrylQLATKAARKS-COOH [butyryl H3K18 peptide]”, at SIRT7 [7], the “Hydrolysis of acyl H3K18 peptide by SIRT7” value (“Hydrolysis” for short) is given as “catalyzed the hydrolysis”.

As for “NH2-KSTGGKAPRK^GlutarylQLATKAARKS-COOH [glutaryl peptide]”, on SIRT7 [7], the “Hydrolysis” value was “not detected”.

“NH2-KSTGGKAPRK^MyristoylQLATKAARKS-COOH [myristoyl H3K18 peptide]”: the “Hydrolysis” value on SIRT7 [7] is listed as “catalyzed the hydrolysis”.

For “NH2-KSTGGKAPRK^OctanoylQLATKAARKS-COOH [octanoyl H3K18 peptide]”, the “Hydrolysis” value at SIRT7 [7] was “catalyzed the hydrolysis”.

On to “NH2-KSTGGKAPRK^SuccinylQLATKAARKS-COOH [succinyl H3K18 peptide]”, for which, at SIRT7 [7], the “Hydrolysis” value is “catalyzed the hydrolysis”.
